Legend:
[1] = system: heterozygous MECP2knockout mice (HET); assay: Startle/PPI; type: in vivo
Method: Studies employed wild type (WT) mice and heterozygous MECP2knockout mice (HET) All mice were provided by Jackson Laboratory, Bar Harbor, Maine. HET mice were Bird mice (Jackson Laboratories, Bar Harbor, ME, B6.129P2(C)-Mecp2^tm1.1Bird/Stock Number: 003890) were obtained by crossing het females with wild type (WT) males (C57B/6J). […] Mecp2 females testing at ˜8 and ˜12 weeks of age WT—vehicle (0.25% MC/dH2O) HET—vehicle (0.25% MC/dH2O) HET—A2-733 (10 mg/kg) HET—A2-733 (30 mg/kg) Chronic dosing (p.o.) daily, starting at ˜5.5 weeks of age and continuing through the 12-week behavioral testing time point 60 min pre-treatment during behavioral testing. The acoustic startle measures an unconditioned reflex response to external auditory stimulation. Mice are placed in the prepulse inhibition (PPI) chambers for a 5 min session of white noise (70 dB) habituation. Then the session starts with a habituation block of 6 presentations of the startle stimulus alone, followed by 10 PPI blocks of 6 different types of trials [null (no stimuli), startle (120 dB), startle plus prepulse (4, 8 and 12 dB over background noise i.e. 74, 78 or 82 dB) and prepulse alone (82 dB)] presented at random within each block. The amount of inhibition of the normal startle is determined and expressed as a percentage of the basic startle response (from startle alone trials), excluding the startle response of the first habituation block.

Rett syndrome [2] = assay: Example 1 breathing variability in Rett syndrome patient; type: in vivo, human; conditions: person, oral 4 mg daily for 10 days
Method: A person presenting with Rett syndrome is administered oral doses of A2-73 at 4 mg daily for 10 days. On presentation, their breathing is abnormal. Their mean breaths per minute is calculated to assess breathing variability.

Williams syndrome = assay: Example 6 weight gain in Williams syndrome patient; type: in vivo, human; conditions: person, i.v. 5 mg every other day, after 60 days
Method: A person presents with Williams syndrome. […] They begin treatment with i.v. doses of A2-73 at 5 mg every other day.

[3] = system: relapsing-remitting multiple sclerosis; assay: Example 9 gadolinium-enhancing MRI lesions in relapsing-remitting multiple sclerosis patient; type: in vivo, human; conditions: person, oral 30 mg every other day for 3 months, up to month 6
Method: A person presents with relapsing-remitting multiple sclerosis. They begin treatment with oral doses of A2-73 at 30 mg every other day for 3 months.

Rett syndrome [4] = assay: Example 4 eating and choking in Rett syndrome patient; type: in vivo, human; conditions: person, oral 40 mg every other day, after 60 days
Method: A person presents with Rett syndrome. […] They begin treatment with oral doses of A2-73 at 40 mg every other day.

Angelman syndrome = assay: Example 5 sleep and seizures in Angelman syndrome patient; type: in vivo, human; conditions: person, oral 30 mg/day, after 15 days
Method: A person presents with Angelman syndrome. They experience disturbed sleep and frequent seizures prior to commencing therapy. They begin treatment with oral doses of A2-73 at 30 mg/day.

[5] = Body weight of Mecp2 HET mice under chronic dosing; type: in vivo; conditions: 30 mg/kg p.o. daily, 6.5 weeks after dosing began; Treatment×Age effect p<0.001
Method: Studies employed wild type (WT) mice and heterozygous MECP2knockout mice (HET) All mice were provided by Jackson Laboratory, Bar Harbor, Maine. HET mice were Bird mice (Jackson Laboratories, Bar Harbor, ME, B6.129P2(C)-Mecp2^tm1.1Bird/Stock Number: 003890) were obtained by crossing het females with wild type (WT) males (C57B/6J). […] Mecp2 females testing at ˜8 and ˜12 weeks of age WT—vehicle (0.25% MC/dH2O) HET—vehicle (0.25% MC/dH2O) HET—A2-733 (10 mg/kg) HET—A2-733 (30 mg/kg) Chronic dosing (p.o.) daily, starting at ˜5.5 weeks of age and continuing through the 12-week behavioral testing time point 60 min pre-treatment during behavioral testing. […] FIG. 1 There was a significant Treatment×Age effect (p<0.001), where mice treated with A2-733 (30 mg/kg) weighed less than vehicle-treated mutant mice 6.5 weeks after dosing began.

multiple sclerosis = assay: Example 8 gadolinium-enhanced MRI lesions in multiple sclerosis patient; type: in vivo, human; conditions: person, oral 40 mg every fifth day, weeks 12, 16, 20 and 24 vs 12 week pretreatment MRI
Method: A person presents with multiple sclerosis. They begin treatment with oral doses of A2-73 at 40 mg every fifth day.

Rett syndrome [6] = assay: Example 2 cardiac pulse rate in Rett syndrome patient; type: in vivo, human; conditions: person, oral 20 mg daily for 5 days
Excerpt: A person presents with Rett syndrome. Their real time cardiac pulse rate is monitored. Prior to commencing therapy, their heart rate is 49 beats per minute with substantial variability.

CN(C)CC1CCOC1(c1ccccc1)c1ccccc1.Cl (stereo not shown) [A2-73, tetrahydro-N,N-dimethyl-2,2-diphenyl-3-furanmethanamine hydrochloride]
PPI, treatment differences ([1]; 8 weeks of age): No treatment differences
startle response vs vehicle-treated mutant mice ([1]; 8 weeks of age, 30 mg/kg p.o. daily): increased startle response
startle response vs vehicle-treated mutant mice, outliers removed ([1]; 12 weeks of age, 30 mg/kg, outliers removed, p<0.01): increased startle
startle response, treatment effect ([1]; 12 weeks of age, all data, p<0.08): trend of a treatment effect
PPI treatment interaction, post hoc ([1]; 12 weeks of age, interaction p<0.05): did not reveal any significant post hoc differences
breathing variability (breaths/minute) (Rett syndrome [2]): significantly reduced
weight gain (Williams syndrome): 10%
number of total gadolinium-enhancing lesions on monthly brain MRI [3]: significantly lower number
instances of choking (Rett syndrome [4]): reduced
weight gain (Rett syndrome [4]): 10%
reduction of instances of seizure (Angelman syndrome): 50%
sleep (Angelman syndrome): markedly less disturbed
body weight vs vehicle-treated mutant mice [5]: weighed less
total number of gadolinium-enhanced lesions on MRI (multiple sclerosis): substantially reduced
heart rate variability (Rett syndrome [6]): variability is reduced
average heart rate (Rett syndrome [6]; 49 beats per minute before therapy): 75 beats per minutes
